Results: patent US10696629B2, “Crystalline form of dextral oxiracetam, preparation method therefor and use thereof” (CHONGQING RUNZE PHARMACEUTICAL COMPANY LIMITED, priority 2016, dated 2020)
Entries after “also recorded” stand apart in the source; their conditions may differ.

What was measured:
solubility in water = assay type: physicochemical
[1] = variable-temperature powder X-ray diffraction (crystal form stability at high temperatures); assay type: physicochemical; details: heated from 30° C. to 80° C.; powder X-ray diffraction at 35, 45, 55, 65 and 75° C.
Description: The crystalline form III of dextral oxiracetam of the invention was placed on a single crystal silicon sample stage, heated from 30° C. to 80° C., and subjected to powder X-ray diffraction measurement at 35° C., 45° C., 55° C., 65° C. and 75° C., respectively. […] It can be seen that the crystalline form III of dextral oxiracetam of the invention has good stability at high temperatures. […] It can be confirmed that the crystalline form III of dextral oxiracetam is temperature stable. When the crystalline form III of dextral oxiracetam of the invention is used for storage or formulation processing, the requirements on processing and storage temperatures are reduced.

solubility (solubility in water): ≥ 100 mg/mL
Compound: NC(=O)CN1C[C@H](O)CC1=O [dextral oxiracetam]
crystal transformation on heating (stability at high temperatures) [1]: does not show a phenomenon of crystal transformation; also recorded: does not exhibit crystal transformation phenomenon
